Paper PMC9841532, “Exploring the Effect of Halogenation in a Series of Potent and Selective A2B Adenosine Receptor Antagonists” (Journal of Medicinal Chemistry, 2022)
Like-named read-outs stand apart in the source and are kept apart here.

What was measured:
[1] = molecular target: T1, hA1AR (Homo sapiens, UniProt P30542); assay: Radioligand binding competition, [3H]DPCPX, membranes from CHO-A1 cells; conditions: 1 μM, [3H]DPCPX, human CHO cells, n = 2
T1 sequence (P30542 1-326): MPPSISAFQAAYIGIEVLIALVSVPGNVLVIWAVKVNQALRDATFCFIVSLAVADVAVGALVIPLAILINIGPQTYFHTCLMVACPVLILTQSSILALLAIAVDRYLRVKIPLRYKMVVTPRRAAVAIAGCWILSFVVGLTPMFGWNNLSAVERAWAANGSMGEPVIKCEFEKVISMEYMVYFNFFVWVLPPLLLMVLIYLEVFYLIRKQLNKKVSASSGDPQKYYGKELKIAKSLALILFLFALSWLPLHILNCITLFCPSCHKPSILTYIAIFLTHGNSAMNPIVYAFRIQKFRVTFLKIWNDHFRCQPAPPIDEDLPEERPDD
Outline: (§1)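 Racemates, plus selected enantiomers after chiral resolution, were tested at 25 °C, with a 60 min incubation for one subtype and 30 min for others. Non-specific binding was defined with 10 μM or 100 μM R-PIA. Bound radioactivity was counted after washing and filtration.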

[2] = molecular target: T2, hA2AAR (Homo sapiens, UniProt P29274); assay: Radioligand binding competition, [3H]ZM241385, membranes from HeLa-A2A cells; conditions: 1 μM, [3H]ZM241385, human HeLa cells, n = 2
T2 construct: expressed in transfected cells; host or cells: HeLa (HeLa-A2A) cell membranes
T2 sequence (P29274 whole entry): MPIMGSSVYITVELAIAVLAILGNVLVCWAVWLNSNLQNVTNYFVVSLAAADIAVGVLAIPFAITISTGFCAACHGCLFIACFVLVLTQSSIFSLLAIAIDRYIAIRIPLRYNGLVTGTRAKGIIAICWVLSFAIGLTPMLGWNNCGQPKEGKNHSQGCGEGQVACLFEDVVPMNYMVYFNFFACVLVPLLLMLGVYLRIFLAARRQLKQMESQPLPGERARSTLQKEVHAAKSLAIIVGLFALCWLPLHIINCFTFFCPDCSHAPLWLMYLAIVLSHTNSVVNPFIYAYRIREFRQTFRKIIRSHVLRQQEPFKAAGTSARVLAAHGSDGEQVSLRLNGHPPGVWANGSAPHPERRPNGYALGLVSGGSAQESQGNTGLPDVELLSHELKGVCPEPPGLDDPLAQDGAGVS
Outline: as §1

[3] = molecular target: T3, hA2BAR (Homo sapiens, UniProt P29275); assay: Radioligand binding competition, [3H]DPCPX, membranes from HEK-293-A2B cells; set-up: Exp. dG: unit not given here; conditions: for Ki: read-out: Ki hA2B
T3 construct: host or cells: HEK-293 (HEK-293-A2B) cell membranes
T3 sequence (P29275 1-332): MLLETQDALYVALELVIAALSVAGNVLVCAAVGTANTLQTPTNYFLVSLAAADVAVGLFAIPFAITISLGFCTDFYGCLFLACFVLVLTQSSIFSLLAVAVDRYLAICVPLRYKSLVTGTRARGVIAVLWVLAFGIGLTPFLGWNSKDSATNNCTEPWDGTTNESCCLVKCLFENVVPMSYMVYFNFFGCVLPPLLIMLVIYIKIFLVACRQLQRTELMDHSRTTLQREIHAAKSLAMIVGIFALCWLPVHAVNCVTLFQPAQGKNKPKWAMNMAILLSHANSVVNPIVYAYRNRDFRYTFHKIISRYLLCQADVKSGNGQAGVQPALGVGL
Outline: as §1

[4] = molecular target: T4, hA3AR (Homo sapiens, UniProt P0DMS8); assay: Radioligand binding competition, [3H]NECA, membranes from HeLa-A3 cells; conditions: 1 μM, [3H]NECA, human HeLa cells, n = 2
T4 construct: expressed in transfected cells; host or cells: HeLa (HeLa-A3) cell membranes
T4 sequence (P0DMS8 1-318): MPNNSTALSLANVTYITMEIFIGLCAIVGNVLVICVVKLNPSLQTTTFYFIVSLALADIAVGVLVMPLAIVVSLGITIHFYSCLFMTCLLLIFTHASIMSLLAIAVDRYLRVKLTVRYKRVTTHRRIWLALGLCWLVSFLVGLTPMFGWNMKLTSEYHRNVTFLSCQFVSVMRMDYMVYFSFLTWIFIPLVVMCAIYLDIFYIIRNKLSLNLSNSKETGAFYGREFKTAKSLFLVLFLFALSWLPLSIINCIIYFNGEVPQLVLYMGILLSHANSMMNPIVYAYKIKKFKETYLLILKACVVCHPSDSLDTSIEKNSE
Outline: as §1

[5] = molecular target: T5, A2BAR (Homo sapiens, UniProt P29275); assay: cAMP accumulation assay in HEK-293 cells permanently expressing A2BAR-SNAP; type: cell-based; conditions: read-out: KB (hA2B)
T5 construct: expressed in transfected cells; host or cells: HEK-293 T cells permanently expressing pRK5-A2BAR^SNAP
T5 sequence (P29275 1-332): T3 sequence (P29275 1-332)
Description: To assess their ability to block A2BAR agonist intrinsic activity, the effect on A2BAR-mediated cAMP accumulation and cellular impedance was evaluated. To this end, we used HEK-293 cells permanently expressing the A2BAR^SNAP construct, which can be visualized upon staining the cells with a SNAP-fluorescent substrate.
Scale bar: […]. […] Data are expressed as mean ± SEM (n = 4).
cAMP accumulation was measured using the LANCE Ultra cAMP kit (PerkinElmer, Waltham, Massachusetts, USA) as previously described.[55] […] The 384-well plate was incubated 1 h at 22 °C in the dark and was then read on a CLARIOstar Microplate Reader (BMG Labtech, Durham, North Carolina, USA). […] Data were fitted by non-linear regression using GraphPad Prism 9 (San Diego, California, USA).

[6] = molecular target: T5, A2BAR; assay: Cellular impedance label-free assay (xCELLigence) in A2BAR-SNAP cells; type: cell-based; conditions: compound 1 μM, NECA 1 μM, 45 min, n = 4
From the text: To further evaluate the ability of 16b, 16j, 16r, and 16s to preclude A2BAR function in living cells, we took advantage of the cellular impedance label-free method, a widely accepted morphological and functional biosensor of cell status.[39] Accordingly, whole-cell NECA-mediated impedance responses of A2BAR^SNAP cells were monitored in real time in the absence or presence of 16b, 16j, 16r, and 16s.
Figure 4 Blockade of A2BAR-mediated whole-cell label-free responses. (A) Representative example of the impedance signal obtained over the time upon incubation with A2BAR ligands. […] (B) The area under the curve (AUC) derived from the normalized cell index (NCI) shown in (A) was calculated for each condition. Data are expressed as mean ± SEM (n = 4). ***P < 0.001 and **P < 0.01, one-way ANOVA with a Dunnett’s multiple-comparison test when compared to vehicle (Veh).
The xCELLigence RTCA system (Roche) was employed to assess the impact of blocking A2BAR-mediated effects in cellular impedance upon receptor activation, as previously described.[57]−[60] To this end, A2BAR^SNAP cells were growth in 16-well E-plates (Roche), using DMEM supplemented with 1 mM sodium pyruvate, 2 mM L-glutamine, 100 U/mL streptomycin, […] penicillin, and 1.5% (v/v) fetal bovine serum in the presence of 0.5 U/mL of ADA. Of note, wells were previously coated with 50 μL fibronectin (10 μg/mL; Sigma-Aldrich) and the background index for each well was determined with supplemented DMEM (90 μL) in the absence of cells. Subsequently, A2BAR^SNAP cells (90 μL) were plated at a cell density of 10,000 cells/well and grown for 18 h in the RTCA SP device station (Roche) at 37 °C in an atmosphere of 5% CO2. Then, before ligand addition, cell index values were normalized to the same time point using the RTCA software, providing the normalized cell index (NCI). After ligand stimulation, NCI was recorded every 15 s for a total time of at least 45 min. The area under the curve (AUC) for every condition was calculated using GraphPad Prism 9.

[7] = molecular target: T1, hA1AR; conditions: prototype series, [3H]DPCPX, human CHO cells ref 30, 31; cited from earlier work
[8] = molecular target: T2, hA2AAR; conditions: prototype series, human HeLa cells ref 30, 31; cited from earlier work
[9] = molecular target: T4, hA3AR; conditions: prototype series, [3H]NECA, human HeLa cells ref 30, 31; cited from earlier work
[10] = molecular target: A2B; conditions: Figure 1, representative A2B antagonists ref 28-32; read-out: Ki; cited from earlier work
[11] = displacement of specific [3H]DPCPX binding in human HEK-293 cells, n = 3

With `CCOC(=O)C1=C(C)Nc2nc3cc(Br)ccc3n2C1c1ccoc1` (centres unmarked) [16s] the “% at 1 μM hA1 (percentage displacement of specific binding)” value [1] was 1%, the “% at 1 μM hA2A (percentage displacement of specific binding)” value [2] was 37% and the Ki [3, 11] was 3.32 ± 0.4 nM. The Ki [3] was less than 10 nM, the “% at 1 μM hA3 (percentage displacement of specific binding)” value [4] was 25% and the Kb [5] was 1.5 ± 0.5 nM. For the same compound, the “Blockade of NECA-induced changes in cellular impedance (AUC of normalized cell index)” value [6] was “significantly blocked”.
With `CC1=C(C(=O)OC(C)C)C(c2ccco2)n2c(nc3ccccc32)N1` (centres unmarked) [II, reference compound] the “% at 1 μM hA1 (percentage displacement of specific binding)” value ([1]; listed as (±)-ISAM-140) was 20%, the “% at 1 μM hA1 (percentage displacement of specific binding)” value ([1]; listed as ISAM-140) was 14% and the “% at 1 μM hA2A (percentage displacement of specific binding)” value ([2]; listed as (±)-ISAM-140) was 28%. The “% at 1 μM hA2A (percentage displacement of specific binding)” value ([2]; listed as ISAM-140) was 7%, the “% at 1 μM hA2B (percentage displacement of specific binding)” value ([3]; 1 μM, [3H]DPCPX, human HEK-293 cells, n = 2) was 17% and the Ki [3, 11] was 3.49 ± 0.2 nM. The “Exp. dG” value ([3]; experimental binding free energy, Supplementary Table S3, unit not given (errors in kcal/mol)) was -11.53, the “% at 1 μM hA3 (percentage displacement of specific binding)” value ([4]; listed as (±)-ISAM-140) was 2% and the “% at 1 μM hA3 (percentage displacement of specific binding)” value ([4]; listed as ISAM-140) was 3%. The “% at 1 μM hA1 (percentage displacement of specific binding)” value [7] was 20%, the “% at 1 μM hA2A (percentage displacement of specific binding)” value [8] was 28% and the “% at 1 μM hA3 (percentage displacement of specific binding)” value [9] was 2%. The Ki [10] was 3.49 nM.
